The values that follow come from patent US7351687B2, “Antibiotic 107891, its factors A1 and A2, pharmaceutically acceptable salts and compositions, and use thereof” (priority 2003, dated 2008).

Values after ≈ are worked out from the molar mass of the structure shown. Read-outs that look alike come from different tables or passages of the source. Bounds are passed on as bounds.

In one experiment the test system is Propionibacterium acnes. The conditions noted are these: 1016 Propionibacterium. acnes.
The subject of another experiment is Neisseria gonorrhaee. The conditions noted are these: 997 Neisseria gonorrhaee.
In another experiment the test system is Strept. pneumoniae. Nature of the experiment: MIC, broth microdilution method (NCCLS M7-A5). The format is cell-based.
Another experiment relates to Neisseria meningitidis. The note with it: 1613 Neisseria meningitidis.
A further experiment concerns Ent. gallinarum. In words: MIC, broth microdilution method (NCCLS M7-A5). The format is cell-based. The conditions noted are these: 4174 Ent. gallinarum. As for the experimental part:
Antimicrobial activity of the antibiotic 107891 was determined by the broth microdilution method according to the National Committee for Clinical Laboratory Standards recommendations (NCCLS, document M7-A5).
The strains used were clinical isolates or strains from American Type Culture Collection (ATCC).
Antibiotic 107891 was dissolved in DMSO to obtain a 1000 μg/ml stock solution, and subsequently diluted in water to obtain working solution. The media used were cation-adjusted Mueller Hinton broth (CAMHB) for Staphylococci, M. catarrhalis, Enterococci and L. monocytogenes; Todd Hewitt broth (THB) for Streptococci; GC medium+1% Isovitalex+1% haemine for Neisseria spp.; Brain Hearth Infusion+1% C supplement for H. influenzae; Lactobacillus broth for Lactobacilli; Middlebrook 7H9 with Middlebrook OADC enrichment for M. smegmatis; RPMI 1640 Medium for C. albicans. Wilkins Chalgren broth+oxyrase (1:25 v/v) for Clostridia; Brucella broth containing cisteine (0.5 g/L) for Propionibacteria. Inocula for bacteria were 10^5 CFU/ml. C. albicans inoculum was 1×10^4 CFU/ml. All the tests were performed in presence of 0.02% of bovine serum albumin (BSA). […] After 18-24 hours visual readings were performed and MICs determined. […]
Table VIII reports the antimicrobial activities of the individual Factors A1 and A2 of antibiotic 107891. MICs were determined by microbroth dilution method as above described.

The next experiment relates to Staph. epidermidis. Nature of the experiment: MIC, broth microdilution method (NCCLS M7-A5). The format is cell-based.
Where [1] appears, read: 1400 Staphylococcus aureus cl. isol. Met r.
Where [2] appears, read: 4341 Ent. faecalis VanB (first line, r17).
Setting [3] is: 4341 Ent. faecalis VanB (second line, r19).
[4] abbreviates: 569 Enterococcus faecium cl. isol. Van A.

On to `C=C1NC(=O)[C@H](Cc2c[nH]c3ccc(Cl)cc23)NC(=O)[C@H](NC(=O)/C(=C/C)NC(=O)[C@@H](N)C(C)C)CSC[C@@H](C(=O)N[C@H]2C(=O)N3CCC[C@H]3C(=O)NCC(=O)N[C@H](C(=O)N[C@H](C(=O)N[C@@H]3CSC[C@@H]4NC(=O)[C@H](CC(N)=O)NC(=O)[C@@H](CSC[C@@H]5NC(=O)[C@H](Cc6ccccc6)NC(=O)[C@@H](CS/C=C\NC5=O)NC4=O)NC(=O)CNC(=O)CNC(=O)CNC(=O)[C@@H]4CCCN4C3=O)[C@@H](C)O)CS[C@H]2C)NC(=O)[C@H](CC(C)C)NC1=O` [MF-BA-1768α1, reference compound], for which the MIC in the experiment on Ent. faecalis amounted to 4 µg/mL (≈ 1.8 µM).
For `C=C1NC(=O)C(Cc2c[nH]c3ccc(Cl)cc23)NC(=O)C(NC(=O)C(=CC)NC(=O)C(N)C(C)C)CSCC(C(=O)NC2C(=O)N3CCCC3C(=O)NCC(=O)NC(C(=O)NC(C(=O)NC3CSCC4NC(=O)C(CC(N)=O)NC(=O)C(CSCC5NC(=O)C(Cc6ccccc6)NC(=O)C(CS/C=C\NC5=O)NC4=O)NC(=O)CNC(=O)CNC(=O)CNC(=O)C4CC(O)CN4C3=O)C(C)O)CSC2C)NC(=O)C(CC(C)C)NC1=O` (centres unmarked) [Factor A2], the minimal inhibitory concentration (MIC) in the experiment on Propionibacterium acnes is 0.06 µg/mL (≈ 0.0269 µM); against Neisseria gonorrhaee, 0.25 µg/mL (≈ 0.112 µM); with Staph. aureus (819 Staph. aureus Met-S), “≦0.03 μg/ml”; against Staph. aureus (setting [1]), 0.13 µg/mL (≈ 0.0582 µM); in the experiment with Staph. aureus (1524 Staph. aureus Met-R) it was “≦0.03 μg/ml”; in the experiment with Staph. aureus (2235 Staph. aureus Met-R), 0.06 µg/mL (≈ 0.0269 µM). The MIC entry against Strept. pneumoniae (3915 Strept. pneumoniae Pen-S) is “≦0.0015 μg/ml”; against Strept. pneumoniae (3919 Strept. pneumoniae Pen-R) it was “≦0.0015 μg/ml”; against Ent. faecalis, 2 µg/mL (≈ 0.896 µM); in the experiment on Ent. faecalis (4323 Ent. faecalis VanA), “≦0.03 μg/ml”; in the experiment on Ent. faecalis (setting [2]) it was 0.5 µg/mL (≈ 0.224 µM); against Ent. faecalis (setting [3]), 2 µg/mL (≈ 0.896 µM). For the same compound, the MIC was 1 µg/mL (≈ 0.448 µM) in the experiment on Ent. faecalis (4397 Ent. faecalis VanB); 1 µg/mL (≈ 0.448 µM) in the experiment on Ent. faecalis (J1 Ent. faecalis VanA); 0.25 µg/mL (≈ 0.112 µM) against Neisseria meningitidis; 0.5 µg/mL (≈ 0.224 µM) against Ent. faecium (3 Ent. faecium Van A); 1 µg/mL (≈ 0.448 µM) against Ent. faecium (4 Ent. faecium Van A); 2 µg/mL (≈ 0.896 µM) against Ent. faecium (568 Enterococcus faecium cl. isol.). Besides, the MIC against Ent. faecium (setting [4]) worked out at 2 µg/mL (≈ 0.896 µM); with Ent. faecium (4339 Ent. faecium VanD) it was 0.25 µg/mL (≈ 0.112 µM); in the experiment with Ent. faecium (6349 Ent. faecium Van A LNZ-R), 2 µg/mL (≈ 0.896 µM); in the experiment on Ent. faecium (A8 Ent. faecium Van A) it was 0.5 µg/mL (≈ 0.224 µM); against Ent. faecium (D561 Ent. faecium Van A), 2 µg/mL (≈ 0.896 µM); against Ent. gallinarum, 1 µg/mL (≈ 0.448 µM). The minimum inhibitory concentration (MIC) result against Staph. epidermidis (3881 Staph. epidermidis Met-R) is “≦0.03 μg/ml”.
For the compound `C=C1NC(=O)C(Cc2c[nH]c3ccc(Cl)cc23)NC(=O)C(NC(=O)C(=CC)NC(=O)C(N)C(C)C)CSCC(C(=O)NC2C(=O)N3CCCC3C(=O)NCC(=O)NC(C(=O)NC(C(=O)NC3CSCC4NC(=O)C(CC(N)=O)NC(=O)C(CSCC5NC(=O)C(Cc6ccccc6)NC(=O)C(CS/C=C\NC5=O)NC4=O)NC(=O)CNC(=O)CNC(=O)CNC(=O)C4C(O)C(O)CN4C3=O)C(C)O)CSC2C)NC(=O)C(CC(C)C)NC1=O` (centres unmarked) [Factor A1], the MIC with Propionibacterium acnes was below 0.03 µg/mL; against Neisseria gonorrhaee it was 0.5 µg/mL (≈ 0.222 µM); against Staph. aureus (819 Staph. aureus Met-S) it was “≦0.03 μg/ml”; against Staph. aureus (setting [1]), 0.13 µg/mL (≈ 0.0578 µM); against Staph. aureus (1524 Staph. aureus Met-R) it was “≦0.03 μg/ml”; against Staph. aureus (2235 Staph. aureus Met-R) it was 0.06 µg/mL (≈ 0.0267 µM). Also, the MIC result against Strept. pneumoniae (3915 Strept. pneumoniae Pen-S) is “≦0.0015 μg/ml”; in the experiment on Strept. pneumoniae (3919 Strept. pneumoniae Pen-R), “≦0.0015 μg/ml”; against Ent. faecalis, 1 µg/mL (≈ 0.445 µM); against Ent. faecalis (4323 Ent. faecalis VanA) it was “≦0.03 μg/ml”; with Ent. faecalis (setting [2]), 0.5 µg/mL (≈ 0.222 µM); in the experiment with Ent. faecalis (setting [3]), 2 µg/mL (≈ 0.889 µM). The MIC was determined as 1 µg/mL (≈ 0.445 µM) with Ent. faecalis (4397 Ent. faecalis VanB); 1 µg/mL (≈ 0.445 µM) in the experiment on Ent. faecalis (J1 Ent. faecalis VanA); 0.25 µg/mL (≈ 0.111 µM) in the experiment on Neisseria meningitidis; 0.5 µg/mL (≈ 0.222 µM) against Ent. faecium (3 Ent. faecium Van A); 1 µg/mL (≈ 0.445 µM) against Ent. faecium (4 Ent. faecium Van A); 1 µg/mL (≈ 0.445 µM) against Ent. faecium (setting [4]). The minimal inhibitory concentration (MIC) is 0.25 µg/mL (≈ 0.111 µM) against Ent. faecium (4339 Ent. faecium VanD); 2 µg/mL (≈ 0.889 µM) in the experiment with Ent. faecium (6349 Ent. faecium Van A LNZ-R); 0.5 µg/mL (≈ 0.222 µM) in the experiment on Ent. faecium (A8 Ent. faecium Van A); 2 µg/mL (≈ 0.889 µM) in the experiment with Ent. faecium (D561 Ent. faecium Van A); 1 µg/mL (≈ 0.445 µM) against Ent. gallinarum; “≦0.03 μg/ml” against Staph. epidermidis (3894 Staph. epidermidis Met-R).
